Reference: patent US20220177533A1, “Recombinant TGF a for wound healing purposes, and the process thereof” (SREE CHITRA TIRUNAL INSTITUTE FOR MEDICAL SCIENCES AND …, priority 2018, published 2022)

Columns and labels:
[1] = system: skin (intra-cutaneous reactions); set-up: species or system rabbits (New Zealand White); details: rabbit, in vivo
Source text: (§1) The declaration for skin irritation test is hereby made as the recombinant TGFα induced a total mean score of ‘0.55’ in test material and ‘◯’ in solvent following intra-dermal injection.
(§2) For this study, 23 rabbits (New Zealand White) are taken and kept in a well-fed, healthy and aseptic condition to ensure the perfect outcome of the experimentation.

L929 cells = assay: MTT assay in L929 cells; type: cell-based; details: for cell viability: MTT, L929 cells
Procedure: Prior testing in said in vivo model, an in vitro testing for the metabolic activity has been performed through executing MTT assay in a specific cell line.
The MTT assay is carried out in L929 cells (ATCC, USA). […] 92.26%, 90.30% and 88.87% under these concentrations respectively. […] The results obtained are depicted in FIG. 3.

[2] = Antimicrobial / sterility test on test material
Source text: On the safety side, recombinant TGF α passed the skin irritation test, sterility test and cytotoxicity tests, and found to be suitable for enhancing the healing of chronic wounds.
as §1

rabbit wounds = assay: Wound healing study in rabbits, 4×4 cm incision on the back; type: in vivo, rabbits (New Zealand White)
Source text: as §2
Nine randomly selected rabbits (New Zealand White) are taken and a 4×4 cm incision was made right on the back of the animals. Following the application of Anesthetic Ketamine (Aneket, Neon Laboratories, India). This has been followed by application of recombinant TGFα to the “treated” group, and application of placebo, wherein except the growth factor, all the other conditions of “treated” group is followed.
It is found to initiate cell proliferation in rabbit wounds within 7 days. […] Thus, the recombinant growth factor TGF α found to be suitable for enhancing the healing of chronic wounds.

In the case of “recombinant TGF α: recombinant TGF α of 51 amino acids (Sequence ID No.: 1), carved out of 160 amino acid TGF α, expressed in a prokaryotic system”, the “intra-cutaneous reactions (erythema and edema)” value [1] is reported as “No intra-cutaneous reactions such as erythema and edema”, the “skin irritation test outcome” value [1] is reported as “passed” and the “total mean score, skin irritation test” value [1] is reported as 0.55. For the same substance, the cytotoxicity tests outcome (L929 cells) was “passed”, the cell viability (L929 cells; 0.0025 μg/ml) was 92.16% and the cell viability (L929 cells; 0.025 μg/ml) was 92.26%. The cell viability (L929 cells; 0.25 μg/ml) was 90.30%, the cell viability (L929 cells; 2.5 μg/ml) was 88.87% and the antimicrobial test outcome [2] was “meeting the requirements for dermal applications”. For the same substance, the sterility test outcome [2] was “passed”, the “healing of chronic wounds” value (rabbit wounds; rabbit models) was “enhance the healing of chronic wounds” and the “wound finding on 14th day” value (rabbit wounds; rabbit models, day 14) was “tissue regeneration and formation of epithelial layer”. The “time to initiation of cell proliferation in rabbit wounds” value (rabbit wounds; rabbit, 4×4 cm incision) was ≤ 7 days and the “vasculature and inflammatory response of the healing wound” value (rabbit wounds; treated vs control, FIGS. 4C and 4T) was “higher number of vasculature and almost no inflammatory response”.
